Measurements as given in US8193203B2, “Bicyclic compounds having activity at the CXCR4 receptor” (Allergan, Inc., priority 2008, dated 2012).

Target: T1, human CXCR4 receptor (Homo sapiens, UniProt P61073)
T1 construct: expressed in transfected cells
Assay: Measurement of intracellular Ca+2 responses (FLIPR), antagonism of the SDF-1α response
Assay type: cell-based
Conditions: for IC50: HEK-Gqi5 cells stably expressing human CXCR4, Fluo-4 FLIPR, antagonism of SDF-1α 1.9 nM (EC65); for CXCR4 (% Inh): percent antagonism of SDF-1α 1.9 nM (EC65) response, HEK-Gqi5 human CXCR4 cells, value in brackets
Method in brief: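 HEK-Gqi5 cells stably expressing CXCR4, Fluo-4-loaded (2 uM, 40 min, 37 °C), read on FLIPR. Compound (2.44-40,000 nM) added first for agonism, then SDF-1α at 1.9 nM final (EC65); IC50 and percent antagonism from second-addition calcium signal.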

T1 sequence (P61073 whole entry): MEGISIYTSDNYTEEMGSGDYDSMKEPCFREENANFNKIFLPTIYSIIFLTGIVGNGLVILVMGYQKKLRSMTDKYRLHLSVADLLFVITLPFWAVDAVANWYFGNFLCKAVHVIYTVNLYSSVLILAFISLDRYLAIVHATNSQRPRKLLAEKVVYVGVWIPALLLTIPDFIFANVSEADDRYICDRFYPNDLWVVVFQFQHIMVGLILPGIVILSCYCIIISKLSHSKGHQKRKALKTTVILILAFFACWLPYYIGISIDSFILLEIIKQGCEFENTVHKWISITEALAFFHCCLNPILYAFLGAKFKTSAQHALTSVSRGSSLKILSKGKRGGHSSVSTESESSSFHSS

Compound	IC50 (values in nM)	CXCR4 (% Inh)	IC50 (values given in μM)
CCN(CC)CCCCNc1nc(NC2CCN(Cc3c(OC)cccc3N(C)C)CC2)c2ccccc2n1 [Compound 66, N2-(4-(Diethylamino)butyl)-N4-(1-(2-(dimethylamino)-6-methoxybenzyl)piperidin-4-yl)quinazoline-2,4-diamine]	200 nM	93%	–
COc1cccc(N(C)C)c1CN1CCC(Nc2nc(NCC3CCCO3)nc3ccccc23)CC1 (stereo not shown) [Compound 98, N4-(1-(2-(Dimethylamino)-6-methoxybenzyl)piperidin-4-yl)-N2-((tetrahydrofuran-2-yl)methyl)quinazoline-2,4-diamine]	624 nM	98%	–
N˜4˜-(1-{2-(Dimethylamino)-6-[2-(dimethylamino)ethoxy]benzyl}piperidin-4-yl)-6,7-dimethoxy-N2(1H-1,2,4-triazol-5-ylmethyl)quinazoline-2,4-diamine [Compound 211]	25 nM	98%	–
COc1cccc(N(C)C)c1CN1CCC(Nc2nc(NCC(C)(C)CN(C)C)nc3ccccc23)CC1 [Compound 96, N2-(3-(Dimethylamino)-2,2-dimethylpropyl)-N4-(1-(2-(dimethylamino)-6-methoxybenzyl)piperidin-4-yl)quinazoline-2,4-diamine]	240 nM	100%	–
COc1cccc(N(C)C)c1CN1CCC(Nc2nc(NCC3CNC3)nc3ccccc23)CC1 [Compound 109, N2-(Azetidin-3-ylmethyl)-N4-(1-(2-(dimethylamino)-6-methoxybenzyl)piperidin-4-yl)quinazoline-2,4-diamine]	155 nM	98%	–
COc1cccc(N(C)C)c1CN1CCC(Nc2nc(NC3CCN(C)CC3)nc3ccccc23)CC1 [Compound 94, N4-(1-(2-(Dimethylamino)-6-methoxybenzyl)piperidin-4-yl)-N2-(1-methylpiperidin-4-yl)quinazoline-2,4-diamine]	790 nM	96%	–
COc1cc2nc(NCCCN(C)C)nc(NC3CCN(Cc4c(OC)cccc4N(C)C)CC3)c2cc1OC [Compound 78]	283 nM	100%	–
COc1cccc(N(C)C)c1CN1CCC(Nc2nc(NCC(F)(F)F)nc3ccccc23)CC1 [Compound 93, N4-(1-(2-(Dimethylamino)-6-methoxybenzyl)piperidin-4-yl)-N2-(2,2,2-trifluoroethyl)quinazoline-2,4-diamine]	–	79%	4300 nM
COc1cccc(N(C)C)c1CN1CCC(Nc2nc(N3CC(CN(C)C(=O)OC(C)(C)C)C3)nc3ccccc23)CC1 [Compound 103, tert-Butyl (1-(4-(1-(2-(Dimethylamino)-6-methoxybenzyl)piperidin-4-ylamino)quinazolin-2-yl)azetidin-3-yl)methyl(methyl)carbamate]	–	82%	4100 nM
COc1cccc(N(C)C)c1CN1CCC(Nc2nc(NCCC3CCCN3C)nc3ccccc23)CC1 (stereo not shown) [Compound 97, N4-(1-(2-(Dimethylamino)-6-methoxybenzyl)piperidin-4-yl)-N2-(2-(1-methylpyrrolidin-2-yl)ethyl)quinazoline-2,4-diamine]	140 nM	100%	–
CCN(CC)CCCNc1nc(NC2CCN(Cc3ccccc3N3CCCCC3)CC2)c2cc(OC)c(OC)cc2n1 [Compound 50]	–	86%	6700 nM
COc1cccc(N(C)C)c1CN1CCC(Nc2nc(NCC3CN(C(=O)OC(C)(C)C)C3)nc3ccccc23)CC1 [Compound 108, tert-Butyl 3-((4-(1-(2-(Dimethylamino)-6-methoxybenzyl)piperidin-4-ylamino)quinazolin-2-ylamino)methyl)azetidine-1-carboxylate]	–	89%	2000 nM
COc1cccc(N(C)C)c1CN1CCC(Nc2nc(NCCCN)nc3ccccc23)CC1 [Compound 80, N˜2˜-(3-Aminopropyl)-N˜4˜-{1-[2-(dimethylamino)-6-methoxybenzyl]piperidin-4-yl}quinazoline-2,4-diamine]	130 nM	94%	–
COc1cccc(N(C)C)c1CN1CCC(Nc2nc(NC[C@@H]3CCN(C(=O)OC(C)(C)C)C3)nc3ccccc23)CC1 [Compound 112, (S)-tert-Butyl 3-((4-(1-(2-(Dimethylamino)-6-methoxybenzyl)piperidin-4-ylamino)quinazolin-2-ylamino)methyl)pyrrolidine-1-carboxylate]	–	77%	2100 nM

The remaining lines, values ahead:

IC50 (values in nM)	CXCR4 (% Inh)	IC50 (values given in μM)	Compound
234 nM	95%	–	COc1cccc(N(C)C)c1CN1CCC(Nc2nc(NCC[C@@H]3CCCN3)nc3ccccc23)CC1 [Compound 115, (S)—N-4-(1-(2-(Dimethylamino)-6-methoxybenzyl)piperidin-4-yl)-N2-(2-(pyrrolidin-2-yl)ethyl)quinazoline-2,4-diamine]
169 nM	98%	–	COc1cc2nc(NCCO)nc(NC3CCN(Cc4c(OCCN(C)C)cccc4N(C)C)CC3)c2cc1OC [Compound 208, 2-({4-[(1-{2-(Dimethylamino)-6-[2-(dimethylamino)ethoxy]benzyl}piperidin-4-yl)amino]-6,7-dimethoxyquinazolin-2-yl}amino)ethanol]
71 nM	98%	–	CN(C)CCCNc1nc(NC2CCN(Cc3c(OCCN(C)C)cccc3N(C)C)CC2)c2ccccc2n1 [Compound 228, N4-(1-(2-(Dimethylamino)-6-(2-(dimethylamino)ethoxy)benzyl)piperidin-4-yl)-N2-(3-(dimethylamino)propyl)quinazoline-2,4-diamine]
–	63%	2200 nM	CCN(CC)CCCNc1nc(NC2CCN(Cc3cccc4ccn(C)c34)CC2)c2ccccc2n1 [Compound 133, N2-(3-(Diethylamino)propyl)-N4-(1-((1-methyl-1H-indol-7-yl)methyl)piperidin-4-yl)quinazoline-2,4-diamine]
560 nM	97%	–	COc1cccc(N(C)C)c1CN1CCC(Nc2nc(NCCN3CCN(C)CC3)nc3ccccc23)CC1 [Compound 154, N˜4˜-{1-[2-(Dimethylamino)-6-methoxybenzyl]piperidin-4-yl}-N˜2˜-[2-(4-methylpiperazin-1-yl)ethyl]quinazoline-2,4-diamine]
–	100%	2100 nM	COc1cccc(N(C)C)c1CN1CCC(Nc2nc(N3CCCN(C)CC3)nc3ccccc23)CC1 [Compound 217, N-(1-(2-(Dimethylamino)-6-methoxybenzyl)piperidin-4-yl)-2-(4-methyl-1,4-diazepan-1-yl)quinazolin-4-amine]
105 nM	94%	–	COc1cc2nc(NCCCN)nc(NC3CCN(Cc4c(OC)cccc4N(C)C)CC3)c2cc1OC [Compound 227]
–	84%	1400 nM	CCN(CC)CCCNc1nc(NC2CCN(Cc3ccccc3-n3cccc3)CC2)c2ccccc2n1 [Compound 132, N4-(1-(2-(1H-Pyrrol-1-yl)benzyl)piperidin-4-yl)-N2-(3-(diethylamino)propyl)quinazoline-2,4-diamine]
–	74%	6600 nM	CCN(CC)CCCNc1nc(NC2CCN(Cc3ccccc3-n3ccnc3)CC2)c2ccccc2n1 [Compound 131, N4-(1-(2-(1H-Imidazol-1-yl)benzyl)piperidin-4-yl)-N2-(3-(diethylamino)propyl)quinazoline-2,4-diamine]
–	83%	2200 nM	COc1cccc(N(C)C)c1CN1CCC(Nc2nc(NCC[C@H]3CCCN3C(=O)OC(C)(C)C)nc3ccccc23)CC1 [Compound 116, (R)-tert-Butyl 2-(2-(4-(1-(2-(Dimethylamino)-6-methoxybenzyl)piperidin-4-ylamino)quinazolin-2-ylamino)ethyl)pyrrolidine-1-carboxylate]
65 nM	95%	–	COc1cc2nc(NCCN(C)C)nc(NC3CCN(Cc4c(OCCN5CCCC5)cccc4N(C)C)CC3)c2cc1OC [Compound 193, N˜2˜-[2-(Dimethylamino)ethyl]-N˜4˜-{1-[2-(dimethylamino)-6-(2-pyrrolidin-1-ylethoxy)benzyl]piperidin-4-yl}-6,7-dimethoxyquinazoline-2,4-diamine]
66 nM	94%	–	COc1cc2nc(NCCN(C)C)nc(NC3CCN(Cc4c(OCCCN(C)C)cccc4N(C)C)CC3)c2cc1OC [Compound 203, N˜4˜-(1-{2-(Dimethylamino)-6-[3-(dimethylamino)propoxy]benzyl}piperidin-4-yl)-N˜2˜-[2-(dimethylamino)ethyl]-6,7-dim ethoxyquinazoline-2,4-diamine]
34 nM	85%	–	COc1cc2nc(NCc3cncs3)nc(NC3CCN(Cc4c(OCCN(C)C)cccc4N(C)C)CC3)c2cc1OC [Compound 197, N˜4˜-(1-{2-(Dimethylamino)-6-[2-(dimethylamino)ethoxy]benzyl}piperidin-4-yl)-6,7-dimethoxy-N˜2˜-(1,3-thiazol-5-ylmethyl)quinazoline-2,4-diamine]
84 nM	96%	–	COc1cc2nc(NC[C@@H]3CCNC3)nc(NC3CCN(Cc4c(OCCN(C)C)cccc4N(C)C)CC3)c2cc1OC [Compound 123, (R)—N-4-(1-(2-(Dimethylamino)-6-(2-(dimethylamino)ethoxy)benzyl)piperidin-4-yl)-6,7-dimethoxy-N2-(pyrrolidin-3-ylmethyl)quinazoline-2,4-diamine]
–	95%	1700 nM	COc1cccc(N(C)C)c1CN1CCC(Nc2nc(NCCCn3ccnc3)nc3ccccc23)CC1 [Compound 120, N2-(3-(1H-Imidazol-1-yl)propyl)-N4-(1-(2-(dimethylamino)-6-methoxybenzyl)piperidin-4-yl)quinazoline-2,4-diamine]
